Experiments:
Format in all cases: in vivo
[1] = tested on: Botrytis cinerea; test: Botrytis bunch rot percent disease incidence and severity, 2022 field trial (Example 4)
Description: Similar to Example 3 above, additional field trials were conducted in 2022 to investigate the efficacy of MDJ in preventing bunch rot (Botrytis cinerea). The objective of this trial was to evaluate the fungicidal efficacy of MDJ at 32 oz and 48 oz/A against Botrytis cinerea on wine grapes. Serenade® Opti at 16 oz/A was included for comparative purposes. Pro 90 a NIS with anti-foaming agent was included with each treatment at 2 oz/100 gal. The trial was conducted on 21-year-old Carignane grapes (Vitis vinifera).
The first of three foliar applications was initiated June 22nd (prior to veraison) followed a month later (July 21st when fruit was at early (5 to 10%) veraison, then at 40% veraison on August 1st. Applications were made using a backpack mistblower based on a spray volume of 80 gallons per acre. As a separate control of Erysiphe necator (powdery mildew), a maintenance fungicide program of two applications in June of fenarimol (4 oz/A) followed by two applications of fenarimol+Quintec (6 oz/A) at 2 week intervals was applied.
Temperatures throughout the trial ranged from highs of 89 to 104 degrees and lows of 50 to 66 degrees F. All treatments provided good crop safety with no phytotoxicity observed. Assessments were based on visual observation of the percent disease incidence and severity at each evaluation.

[2] = tested on: Botrytis cinerea; test: Laccase analysis for prevalence of Botrytis, 2021 field trial (Example 3); settings: cabernet sauvignon; approx. 5 mM MDJ at 50 gal/acre, four applications
Description: MDJ was applied to fields of grape to investigate the efficacy of MDJ in preventing bunch rot on (Botrytis cinerea) and powdery mildew (Erysiphe necator) on grapes. […] (1 liter) per 50 gallons of water (approximately a 5 mM solution of MDJ). The composition was then applied (at a rate of 50 gallons per acre) to three acres (1245 vines/acre) of a cabernet sauvignon variety grown in Napa Valley, CA. There was a total of four applications between June and September using a ground spray rig. To investigate the prevalence of Botrytis, the enzyme laccase was analyzed. Laccase can negatively impact wine by causing premature browning of bottled white wine and color degradation in red wine. The MDJ treated group had 2 units/ml, whereas the control (grower standard) had 5 units/ml. This level in the control group means that Botrytis problems can be expected during the wine making process, whereas in the MDJ treated group, the value of 2 units/ml means there will be no issues with Botrytis during the wine making process.

[3] = tested on: Botrytis cinerea; test: Botrytis cinerea disease score (0-5) on inoculated hemp plants (Example 7); settings: at harvest, 8 replicates
Description: A Botrytis cinerea isolate was cultured onto potato-dextrose agar (PDA) and re-isolated by taking a mycelial plug from the edge of actively growing cultures every 2-3 weeks to maintain active growing culture. It was maintained at 20° C. under continuous light (˜[…] m^−2 s^−1). An inoculum was prepared by flooding a full grown B. cinerea PDA plate with DI water and 0.1% Tween-20 to create a suspension of fungal spores. Spore count was quantified.
In the first inoculation, a suspension of 1.2×10^4 spores of B. cinerea/mL was created, and 1.5 mL was applied to the top cola/underdeveloped inflorescence of each hemp plant in the first week of flowering. In the second inoculation, a suspension of 1.5×10^5 spores of B. cinerea/mL was created, and sucrose was added to 1% concentration, and the plants were sprayed until drip using a backpack sprayer.
Inoculated plants were placed in a controlled growth environment with a constant temperature of 20-25° C. and 50-70% relative humidity. (See Zhang et al., “Infection Assays of Tomato and Apple Fruit by the Fungal Pathogen Botrytis cinerea,” bio-protocol 2014; 4 (23): 1-4. See also, Bulger et al. Phytopathology 1987; 77 (8): 1225-1230 and Garfinkel, Plant Disease 2020; 104 (7): 2026.)
Treatments comprising 1 mM or 5 mM jasmonate (MDJ) were applied alone or alongside a biological (Continuum™). […]

CCCCCC1C(=O)CCC1CC(=O)OC (stereo not shown) [MDJ, methyl dihydrojasmonate]
Control of Botrytis incidence and severity, higher vs lower rate ([1]; Carignane wine grapes, higher rate of MDJ (48 oz/A)): numerically better control of Botrytis incidence and severity
B. cinerea suppression (disease incidence) vs untreated grapes ([1]; MDJ Elicitor at both rates (32 and 48 oz/A), 26DAC, 20 bunches per plot): significantly better B. cinerea suppression
Control of Botrytis, higher vs lower rate ([1]; higher rate of MDJ (48 oz/A), 7 and 14 days after the third treatment (7 and 14DAC)): significantly better control
Control of Botrytis incidence compared to the Serenade Opti standard ([1]; low rate of MDJ (32 oz/A), 26DAC): significantly better control of Botrytis incidence
Laccase [2]: 2 units/ml
Average Disease Score (0-5) ([3]; condition B, 1 mM MDJ foliar spray): 2.625
Average Disease Score (0-5) ([3]; condition C, 5 mM MDJ foliar spray): 2.250
